Source: US20210032257A1, “(E)-1-(4-(DIMETHYLAMINO)BUT-2-ENOYL)PYRROLIDIN-3-YL 4-((3-ISOPROPYL-5-METHYLPYRAZOLO[1,5-A]PYRIMIDIN-7-YL)AMINO)PIPERIDINE-1-CARBOXYLATE FOR INHIBITING CDK7” (Eli Lilly and Company, priority 2017, published 2021)

How the values were obtained:
Assay in all cases: Biomarker study proliferation (CellTiter-Glo)
Type in all cases: cell-based
[1] = test system: HCT8
Experimental: (§1) Cancer cell lines are profiled to evaluate the anti-proliferative activity of a test compound in-vitro. Mutation, copy number and gene expression information of ARID1A, KMT2C, KMT2D and/or RB1 genes across cancer cell lines is obtained from COSMIC database (cancer.sanger.ac.uk) and cBioportal (http://www.cbioportal.org/). Cells are cultured in growth medium and plated into a 96-well plate in 100 μL/well growth medium at 5000 cells/well then incubated at 37° C., 5% CO2 overnight. Cells are cultured using supplier recommended media and conditions well known in the art, for example with RPMI 1640 with or without HEPES & L-Glutamine (Thermo SH30255.01) and 1 mM Sodium Pyruvate, and 10% FBS(Gibco cat #10082). The 1000× intermediate dilution plate is prepared by making a 10 mM working solution of a test sample in DMSO and performing 1:3 dilutions in DMSO for 10 points. The 10× dosing plate is prepared by adding 2 μL from the 1000× intermediate dilution plate to 198 μL of OPTIMEM®+10% FBS and mixing well. The cell plate is then treated by adding 11 μL from the 10× dosing plate into the 100 μL/well cell plate for a 1× final concentration. Staurosporine is used as a maximum growth inhibition control at a final concentration of 5 μM. The cell plate is incubated for 7 days at 37° C., 5% CO2. Seven days after treatment, Cell Titer-Glo® (Promega cat #G7571) assay buffer and substrate are removed from −20° C. and allowed to equilibrate to RT. Assay buffer is added to the substrate and swirled gently to mix. The CELL TITER-GLO® reagent (100 μL/well) is added to the cell plate and incubated at RT for 15 minutes. After 15 minutes, luminescence is read using a plate reader. Data is analyzed in Excel and graphed in GraphPad Prism. Statistical analysis and p value is calculated using Mann-Whitney nonparameteric t tests using GraphPad Prism.
(§2) Anti-proliferative effects of a test compound are categorized as insensitive (IC50≥1 μM), cytostatic (IC50<1 μM and % inhibition <70%) or cytotoxic (IC50<1 μM and % inhibition ≥70%).

[2] = test system: SNU423
Experimental: as §1, §2

[3] = test system: TOV21G
Experimental: as §1, §2

[4] = test system: NCIH446
Experimental: as §1, §2

[5] = test system: AN3CA
Experimental: as §1, §2

[6] = test system: NCIH1975
Experimental: as §1, §2

[7] = test system: HS766T
Experimental: as §1, §2

[8] = test system: LI7
Experimental: as §1, §2

[9] = test system: HT
Experimental: as §1, §2

[10] = test system: OZ
Experimental: as §1, §2

[11] = test system: SW626
Experimental: as §1, §2

[12] = test system: DMS79
Experimental: as §1, §2

[13] = test system: KELLY
Experimental: as §1, §2

[14] = test system: SNU869
Experimental: as §1, §2

[15] = test system: HCC44
Experimental: as §1, §2

[16] = test system: A375
Experimental: as §1, §2

[17] = test system: PATU8988T
Experimental: as §1, §2

[18] = test system: SiHa
Experimental: as §1, §2

[19] = test system: NCIH524
Experimental: as §1, §2

[20] = Homo sapiens, 168 h, read-out: Anti-proliferation effect IC50
[21] = 168 h, read-out: Anti-proliferation effect IC50

**Q.** What does the source list for `Cc1cc(NC2CCN(C(=O)O[C@H]3CCN(C(=O)/C=C/CN(C)C)C3)CC2)n2ncc(C(C)C)c2n1` [Example 1, [(3S)-1-[(E)-4-(dimethylamino)but-2-enoyl]pyrrolidin-3-yl] 4-[(3-isopropyl-5-methyl-pyrazolo[1,5-a]pyrimidin-7-yl)amino]piperidine-1-carboxylate]?
**A.** Anti-proliferation effect % Inh. ([1]; HCT8, INTESTINE, 7 days): 3%; Anti-proliferation effect Outcome ([1]; HCT8, INTESTINE, 7 days): Cytostatic (cytostatic (IC50<1 μM and % inhibition <70%)); IC50 ([1]; Homo sapiens, HCT-8, 168 h, read-out: Anti-proliferation effect IC50): 981 nM; IC50 ([2]; Homo sapiens, SNU-423, 168 h, read-out: Anti-proliferation effect IC50): > 10000 nM; Anti-proliferation effect % Inh. ([2]; SNU423, LIVER, 7 days): 40%; Anti-proliferation effect Outcome ([2]; SNU423, LIVER, 7 days): Insensitive (insensitive (IC50≥1 μM)); IC50 [3, 20]: 61 nM; Anti-proliferation effect % Inh. ([3]; OVARY, 7 days): 73%; Anti-proliferation effect Outcome ([3]; OVARY, 7 days): Cytotoxic (cytotoxic (IC50<1 μM and % inhibition ≥70%)); IC50 ([4]; Homo sapiens, NCI-H446, 168 h, read-out: Anti-proliferation effect IC50): 13 nM; Anti-proliferation effect % Inh. ([4]; NCIH446, LUNG, 7 days): 95%; Anti-proliferation effect Outcome ([4]; NCIH446, LUNG, 7 days): Cytotoxic (cytotoxic (IC50<1 μM and % inhibition ≥70%)); Anti-proliferation effect % Inh. ([5]; AN3CA, ENDOMETRIUM, 7 days): 67%; Anti-proliferation effect Outcome ([5]; AN3CA, ENDOMETRIUM, 7 days): Cytostatic (cytostatic (IC50<1 μM and % inhibition <70%)); IC50 ([5]; Homo sapiens, AN3-CA, 168 h, read-out: Anti-proliferation effect IC50): 50 nM; IC50 ([6]; Homo sapiens, NCI-H1975, 168 h, read-out: Anti-proliferation effect IC50): 21 nM; Anti-proliferation effect % Inh. ([6]; NCIH1975, LUNG, 7 days): 90%; Anti-proliferation effect Outcome ([6]; NCIH1975, LUNG, 7 days): Cytotoxic (cytotoxic (IC50<1 μM and % inhibition ≥70%)); Anti-proliferation effect % Inh. ([7]; HS766T, PANCREAS, 7 days): 72%; Anti-proliferation effect Outcome ([7]; HS766T, PANCREAS, 7 days): Cytotoxic (cytotoxic (IC50<1 μM and % inhibition ≥70%)); IC50 ([7]; Hs766T, 168 h, read-out: Anti-proliferation effect IC50): 62 nM; Anti-proliferation effect % Inh. ([8]; LI7, LIVER, 7 days): 76%; Anti-proliferation effect Outcome ([8]; LI7, LIVER, 7 days): Cytotoxic (cytotoxic (IC50<1 μM and % inhibition ≥70%)); IC50 ([8]; Li-7, 168 h, read-out: Anti-proliferation effect IC50): 132 nM; Anti-proliferation effect % Inh. ([9]; BLOOD, 7 days): 64%; Anti-proliferation effect Outcome ([9]; BLOOD, 7 days): Cytostatic (cytostatic (IC50<1 μM and % inhibition <70%)); IC50 [9, 20]: 131 nM; IC50 [10, 21]: 50 nM; Anti-proliferation effect % Inh. ([10]; OZ, LIVER, 7 days): 77%; Anti-proliferation effect Outcome ([10]; OZ, LIVER, 7 days): Cytotoxic (cytotoxic (IC50<1 μM and % inhibition ≥70%)); IC50 ([11]; Homo sapiens, SW626, 168 h, read-out: Anti-proliferation effect IC50): 1100 nM; Anti-proliferation effect % Inh. ([11]; SW626, 7 days): 39%; Anti-proliferation effect Outcome ([11]; SW626, 7 days): Insensitive (insensitive (IC50≥1 μM)); Anti-proliferation effect % Inh. ([12]; DMS79, LUNG, 7 days): 50%; Anti-proliferation effect Outcome ([12]; DMS79, LUNG, 7 days): Cytostatic (cytostatic (IC50<1 μM and % inhibition <70%)); IC50 ([12]; Homo sapiens, DMS-79, 168 h, read-out: Anti-proliferation effect IC50): 354 nM; Anti-proliferation effect % Inh. ([13]; KELLY, CNS, 7 days): 80%; Anti-proliferation effect Outcome ([13]; KELLY, CNS, 7 days): Cytotoxic (cytotoxic (IC50<1 μM and % inhibition ≥70%)); IC50 ([13]; Kelly, 168 h, read-out: Anti-proliferation effect IC50): 58 nM; IC50 [14, 21]: 52 nM; Anti-proliferation effect % Inh. ([14]; SNU869, BILIARY, 7 days): 60%; Anti-proliferation effect Outcome ([14]; SNU869, BILIARY, 7 days): Cytostatic (cytostatic (IC50<1 μM and % inhibition <70%)); Anti-proliferation effect % Inh. ([15]; HCC44, LUNG, 7 days): 48%; Anti-proliferation effect Outcome ([15]; HCC44, LUNG, 7 days): Cytostatic (cytostatic (IC50<1 μM and % inhibition <70%)); IC50 ([15]; Homo sapiens, HCC44, 168 h, read-out: Anti-proliferation effect IC50): 131 nM; Anti-proliferation effect % Inh. ([16]; A375, SKIN, 7 days): 86%; Anti-proliferation effect Outcome ([16]; A375, SKIN, 7 days): Cytotoxic (cytotoxic (IC50<1 μM and % inhibition ≥70%)); IC50 ([16]; Homo sapiens, A-375, 168 h, read-out: Anti-proliferation effect IC50): 55 nM; IC50 ([17]; Homo sapiens, PaTu 8988t, 168 h, read-out: Anti-proliferation effect IC50): 201 nM; Anti-proliferation effect % Inh. ([17]; PATU8988T, PANCREAS, 7 days): 55%; Anti-proliferation effect Outcome ([17]; PATU8988T, PANCREAS, 7 days): Cytostatic (cytostatic (IC50<1 μM and % inhibition <70%)); Anti-proliferation effect % Inh. ([18]; CERVIX, 7 days): 58%; Anti-proliferation effect Outcome ([18]; ENDOMETRIUM, 7 days): Cytostatic (cytostatic (IC50<1 μM and % inhibition <70%)); IC50 [18, 20]: 105 nM; IC50 ([19]; Homo sapiens, NCI-H524, 168 h, read-out: Anti-proliferation effect IC50): 37 nM; Anti-proliferation effect % Inh. ([19]; NCIH524, LUNG, 7 days): 92%; Anti-proliferation effect Outcome ([19]; NCIH524, LUNG, 7 days): Cytotoxic (cytotoxic (IC50<1 μM and % inhibition ≥70%))
